In PMC7665024, “Anti-apoptotic BCL-2 regulation by changes in dynamics of its long unstructured loop” (Communications Biology, 2020):

Legend:
[1] = tested on: BAX; assay: FRAP-GUV pore-forming activity of BAX, 10-kDa F-dextran; assay type: biochemical, mouse; parameters: unit not given here
Experimental: (§1) Briefly, GUVs were incubated with the proteins of interest over a period of time (Fig. 2c), followed by photobleaching within individual GUVs. A series of fluorescent images were collected over time after the photobleaching and then analyzed to yield the diffusion coefficients of Fluor molecules (including FITC-labeled 70-kDa, and Alexa-647-labeled 10-kDa probes) using the theoretical approach detailed in the “Methods” section. As Fluor molecules are homogeneously dispersed in the solution (outside and inside of GUVs) before the incubation with BAX and activators, it is reasonable to expect that the larger the induced pore area on the surface of a GUV, the greater the diffusion coefficient. Thus, the diffusion coefficient is directly related to the pore-forming activity of activated BAX. As the pore-forming activity is proportional to the concentration of BAX[18], we fixed the total amount of added BAX in all of the measurements below (see the “Methods” section).
(§2) Full-length BAX and variants were prepared as previously described[18],[22],[35]. Mouse BAX was cloned into pTYB1 vector (New England Biolabs, Inc.), resulting pTYB1-BAX construct. The pTYB1-BAX construct encoding a fusion protein of BAX with chitin-binding peptide was separated by a self-cleavable intein tag to obtain a full-length BAX. Wild-type BAX has two native cysteine residues at 62 and 126. Cysteine-free construct (C62S/C126S) was used to prepare single-cysteine BAX variants for conjugating fluorescence probes (e.g., BAX136C in Fig. 1d). Point mutations of recombinant BAX were generated using a QuikChange mutagenesis kit. Proteins were expressed in E. coli (ER2566) strain (New England Biolabs, Inc.) and purified without detergent. Bacterial cultures were grown at 37 °C in LB medium containing 0.1 g/L ampicillin to reach an OD600 of 1.0. BAX expression was induced by addition of 0.3 mM IPTG at 30 °C for 6−8 h. The cells were harvested by centrifugation and resuspended in ice-cold lysis buffer (20 mM Tris–HCl, pH 7.0, 500 mM NaCl and 1 mM PMSF). The resuspended pellet was sonicated on ice for 30 min, followed by centrifugation at 12,800 × g for 50 min. […] The resins were incubated in a pre-equilibrated buffer (20 mM sodium phosphate, pH 8.0, 100 mM NaCl, 60 mM dithiothreitol (DTT)) for 48 h. Proteins were eluted from column and further purified by a SEC using a HiLoad 16/60 Superdex 75 column (GE Healthcare) pre-equilibrated in PB buffer (20 mM sodium phosphate, pH 7.4, 100 mM NaCl). Purified proteins were confirmed by SDS–PAGE with Coomassie blue staining. Protein concentration was determined using absorption spectroscopy at 280 nm.
(§3) All lipids used were purchased from Avanti Polar Lipids. […] Texas Red 1,2-dihexadecanoyl-sn-glycero-3-phosphoethanolamine (TR-DPPE) (Invitrogen) of 0.05% was added to the lipid mixture for virtualization of GUV[18],[26],[27]. GUVs were prepared with the gel-assisted swelling on a polyvinyl alcohol (PVA) gel[39]. A 5% (w/w) solution of PVA (MW 145,000) was prepared by stirring PVA in ddH2O while heating at 90 °C. PVA solution was spread on a microscope coverslip (18 × 18 mm, Matsunami, Japan) and then dried at 50 °C. Lipid mixture (1 mg/mL) dissolved in chloroform were spread on the dry PVA film and placed under vacuum for 30 min to evaporate the solvent. Lipids were rehydrated for 1 h in PB buffer. The resulting GUVs were transferred to an Eppendorf tube using blunt tips.
(§4) FRAP measurements were performed as described previously. […] All reactions were at room temperature and the final volume was 200 μL.

[2] = tested on: BAX; assay: FRAP-GUV pore-forming activity of BAX, 70-kDa F-dextran;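 on FRAP pore-forming activity, average: unitless ratio D/D0 relative to diffusion coefficient after Triton X-100 disruption of GUVs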;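 on FRAP pore-forming activity: unitless ratio D/D0 relative to diffusion coefficient after Triton X-100 disruption of GUVs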; assay type: biochemical, mouse; parameters: FRAP pore-forming activity / FRAP pore-forming activity, average / p (FRAP-70k-p), Average: unit not given here; details: for pore-forming activity / effect on BAX-induced membrane pores on GUV (in words): 10- and 70-kDa F-dextran, BAX 1 µM, BimBH3 2 µM, BCL-2 1 µM, ABT-199 30 µM, room temperature, Fig. 2c; for FRAP pore-forming activity, average / FRAP pore-forming activity: 70 kDa F-dextran; for FRAP pore-forming activity, average: mean of trials
Experimental: as §1, §2, §3, §4

[3] = 10 kDa F-dextran, mean of trials

**Q.** Which results are given for `CC1(C)CCC(CN2CCN(c3ccc(C(=O)NS(=O)(=O)c4ccc(NCC5CCOCC5)c([N+](=O)[O-])c4)c(Oc4cnc5[nH]ccc5c4)c3)CC2)=C(c2ccc(Cl)cc2)C1` [ABT-199, Venetoclax, reference compound]?
**A.** FRAP pore-forming activity, average [1, 3]: 0.0002024; FRAP pore-forming activity ([1]; 10 kDa F-dextran, trial1): 0.0000000; FRAP pore-forming activity ([1]; 10 kDa F-dextran, trial2): 0.0001754; FRAP pore-forming activity ([1]; 10 kDa F-dextran, trial3): 0.0000000; FRAP pore-forming activity ([1]; 10 kDa F-dextran, trial4): 0.0001754; FRAP pore-forming activity ([1]; 10 kDa F-dextran, trial5): 0.0000000; FRAP pore-forming activity ([1]; 10 kDa F-dextran, trial6): 0.0000000; FRAP pore-forming activity ([1]; 10 kDa F-dextran, trial7): 0.0001754; FRAP pore-forming activity ([1]; 10 kDa F-dextran, trial8): 0.0008772; FRAP pore-forming activity ([1]; 10 kDa F-dextran, trial9): 0.0007018; FRAP pore-forming activity ([1]; 10 kDa F-dextran, trial10): 0.0000000; FRAP pore-forming activity ([1]; 10 kDa F-dextran, trial11): 0.0001754; FRAP pore-forming activity ([1]; 10 kDa F-dextran, trial12): 0.0001754; FRAP pore-forming activity ([1]; 10 kDa F-dextran, trial13): 0.0001754; pore-forming activity / effect on BAX-induced membrane pores on GUV (in words) [2]: BimBH3 is released from EEE to induce BAX activation and membrane pores; FRAP pore-forming activity, average [2]: 0.0000762; FRAP pore-forming activity ([2]; trial1): 0.0000000; FRAP pore-forming activity ([2]; trial2): 0.000165; FRAP pore-forming activity ([2]; trial3): 0.0000000; FRAP pore-forming activity ([2]; trial4): 0.000165; FRAP pore-forming activity ([2]; trial5): 0.0000000; FRAP pore-forming activity ([2]; trial6): 0.0000000; FRAP pore-forming activity ([2]; trial7): 0.000165; FRAP pore-forming activity ([2]; trial8): 0.0000000; FRAP pore-forming activity ([2]; trial9): 0.0000000; FRAP pore-forming activity ([2]; trial10): 0.0000000; FRAP pore-forming activity ([2]; trial11): 0.000165; FRAP pore-forming activity ([2]; trial12): 0.000165; FRAP pore-forming activity ([2]; trial13): 0.000165

**Q.** What does the source list for “BAX: full-length mouse BAX; in FRET the single-cysteine variant BAX136C labeled with AL488 [reference compound]”?
**A.** FRAP pore-forming activity, average [1, 3]: 0.009408; FRAP pore-forming activity ([1]; 10 kDa F-dextran, trial1): 0.008947; FRAP pore-forming activity ([1]; 10 kDa F-dextran, trial2): 0.02404; FRAP pore-forming activity ([1]; 10 kDa F-dextran, trial3): 0.006842; FRAP pore-forming activity ([1]; 10 kDa F-dextran, trial4): 0.00807; FRAP pore-forming activity ([1]; 10 kDa F-dextran, trial5): 0.01263; FRAP pore-forming activity ([1]; 10 kDa F-dextran, trial6): 0.01719; FRAP pore-forming activity ([1]; 10 kDa F-dextran, trial7): 0.004737; FRAP pore-forming activity ([1]; 10 kDa F-dextran, trial8): 0.002982; FRAP pore-forming activity ([1]; 10 kDa F-dextran, trial9): 0.002807; FRAP pore-forming activity ([1]; 10 kDa F-dextran, trial10): 0.02035; FRAP pore-forming activity ([1]; 10 kDa F-dextran, trial11): 0.007719; FRAP pore-forming activity ([1]; 10 kDa F-dextran, trial12): 0.003684; FRAP pore-forming activity ([1]; 10 kDa F-dextran, trial13): 0.01684; FRAP pore-forming activity ([1]; 10 kDa F-dextran, trial14): 0.0007018; FRAP pore-forming activity ([1]; 10 kDa F-dextran, trial15): 0.003509; FRAP pore-forming activity ([1]; 10 kDa F-dextran, trial16): 0.009474; FRAP pore-forming activity, average ([1]; 10 kDa, Average of replicates (Count: BAX 16; BAX + BimBH3 19; BAX + BimBH3 + EEE 22; + EEE-PB 4; + EEE+ABT-199 5)): 0.009408; pore-forming activity / effect on BAX-induced membrane pores on GUV (in words) [2]: neither BAX nor EEE, in the absence of pro-apoptotic BimBH3, is able to induce large membrane pores on GUV; FRAP pore-forming activity, average [2]: 0.004165; FRAP pore-forming activity ([2]; trial1): 0.0008251; FRAP pore-forming activity ([2]; trial2): 0.006931; FRAP pore-forming activity ([2]; trial3): 0.002475; FRAP pore-forming activity ([2]; trial4): 0.000495; FRAP pore-forming activity ([2]; trial5): 0.00132; FRAP pore-forming activity ([2]; trial6): 0.001155; FRAP pore-forming activity ([2]; trial7): 0.003135; FRAP pore-forming activity ([2]; trial8): 0.001155; FRAP pore-forming activity ([2]; trial9): 0.000495; FRAP pore-forming activity ([2]; trial10): 0.0008251; FRAP pore-forming activity ([2]; trial11): 0.00264; FRAP pore-forming activity ([2]; trial12): 0.00231; FRAP pore-forming activity ([2]; trial13): 0.002145; FRAP pore-forming activity ([2]; trial14): 0.005776; FRAP pore-forming activity ([2]; trial15): 0.000165; FRAP pore-forming activity ([2]; trial16): 0.000495; FRAP pore-forming activity ([2]; trial17): 0.01485; FRAP pore-forming activity ([2]; trial18): 0.0132; FRAP pore-forming activity ([2]; trial19): 0.01155; FRAP pore-forming activity ([2]; trial20): 0.002805; FRAP pore-forming activity ([2]; trial21): 0.01271; p (FRAP-70k-p), Average ([2]; 70 kDa, Average of replicates (Count: BAX 21; BAX + BimBH3 16; BAX + BimBH3 + EEE 19; + EEE-PB 8; + EEE+ABT-199 5)): 0.004165
